The subject of data set [1] is Staphylococcus aureus biofilm. The experiment in a line: Crystal violet biofilm formation and mature biofilm assay. The class given is cell-based. The conditions noted are these: added at t=0 (de novo forming) or t=24 hours (established), pH 7.0, FIG. 5. On the procedure: (§1) After addition of treatments, all plates were then incubated for 24 hours at 37° C.
(§2) Following incubation at room temperature for 15 minutes the microtiter plates were washed 3-4 times with water by submerging in water, with blotting to rid the plate of all excess cells and dye. Plates were left to dry overnight. The CV stain was solubilised with 125 ul of 30% acetic acid and absorbance to indicate biofilm biomass quantified at 550 nm following an incubation of 15 minutes, normalised to vehicle only.

The test system of data set [2] is Pseudomonas aeruginosa biofilm. Described as above. In kind it is cell-based. The settings on record: added at t=0 (de novo forming) or t=24 hours (established), pH 7.0, FIG. 5. How it is done: as §1, §2
Data set [3] has as its system S. epidermidis biofilm. The description is as above. The class given is cell-based, Staphylococcus epidermidis. The settings on record: added at t=0 (de novo forming) or t=24 hours (established), pH 7.0, FIG. 5. How it is done:
as §1, §2

The conditions of data set [4]: Octanol-Water; cited from earlier work.
The conditions of data set [5]: cited from earlier work.
The conditions of data set [6]: rabbit; cited from earlier work.
The conditions of data set [7]: rat, 4 h; cited from earlier work.
The subject of data set [8] is Pseudomonas aeruginosa (WACC91 and PA-001) biofilm. The experiment in a line: Crystal violet staining of biofilm-protected P. aeruginosa microcolonies. In kind it is cell-based. On the procedure: Laboratory strains of Pseudomonas aeruginosa (WACC91 and PA-001) were thawed (stored as 50% glycerol stocks at −70° C.+2° C.) and streaked out on blood agar plates. […] In this case cultures were propagated to stationary phase to induce stress responses needed to induce biofilm formation on seeding for treatment. […] Biofilm formation was complete approximately 24-48 hours following seeding, this was confirmed by a minimum of 1.8 absorbance units at 600 nm. Prebiotic solution collected from C1 was applied to B0 cultures that had achieved biofilm formation. A 10 dose dilution series of the prebiotic test solution in PMM was prepared (Table 2) to determine the optimal dose range for biofilm disruption of B0 cultures, with 50 μl total volume added to each B0 culture. […] The CV stain was solubilised with 125 ul of 30% acetic acid and absorbance to indicate biofilm density (also referred to as biofilm biomass) was quantified at 550 nm following an incubation of 15 minutes at room temperature. […] Biofilm formation was complete approximately 24-48 hours following seeding as confirmed by a minimum of 1.8 absorbance units at 600 nm. […] The CV stain was solubilised with 125 ul of 30% acetic acid and absorbance to indicate biofilm biomass quantified at 550 nm following an incubation of 15 minutes.

The subject of data set [9] is P. aeruginosa clinical isolates from patients with cystic fibrosis. The experiment in a line: Resazurin staining of biofilm microcolonies from clinical isolates. The settings on record: for Altered metabolism with treatment (% of isolates) / Metabolism change (% from baseline): 0.5-1.25 ug/ml, 24 hours. Background: Alamar Blue is a resazurin reagent that responds to reducing activity.
Experimental: Cultures of interest were thawed and streaked out on blood agar plates and allowed to grow at 37° C., 5% CO2 for 12-24 hours until suitable growth was achieved to enable further culturing. An isolated colony was looped into 5 ml of LB broth and incubated overnight at 37° C., 5% CO2.
Stock cultures were diluted 1:1000 in 1% of appropriate media (LB for mucoid P. aeruginosa strains; M63 medium was used for P. aeruginosa rough strains 001-11R; PMM for all other strains) to achieve approximately 10^8 cfu/ml (confirmed by measuring 0.02 absorbance units, approximately 1.8 ul in 2 ml of media). Diluted working cultures were mixed well and seeded at 200 ul/well across a 96 well microtitre plate, with biofilm formation complete approximately 24-48 hours following seeding.
Treatments were completed in duplicate for all bacterial strains across the dose range used.
Viable cells reduce the blue resazurin dye to the pink-fluorescent resorufin form. Following incubation fluorescence was quantified by excitation wavelength of 540 nm and an emission wavelength of 590 nm using Enspire microplate reader.

The test system of data set [10] is S. aureus (ATCC 33592). The experiment in a line: Antimicrobial activity on planktonic bacteria, flow cytometry and broth microdilution. The settings on record: for MIC: Staphylococcus aureus, ATCC33592, read-out: minimum inhibitory concentration (MIC); for concentration at which first significant phenotypic change (decrease in SYTO 9 fluorescence) was observed: flow cytometry, 3 hours.
Experimental: (§3) This was undertaken in parallel with a conventional broth microdilution (BMD) assay.
(§4) Two-fold serial dilutions of D- or L-lactate were performed in a 96-well plate, ranging from 0.008 grams per litre to 8 g/L with a volume of 50 μL per well.
(§5) The bacterial suspensions were prepared from cultures grown overnight in trypticase soya broth (TSB). Each culture was diluted 1:1000 in Hanks buffered saline solution (HBSS), stained with 1 μL of SYTO® 9, incubated for a minimum of 8 minutes with shaking, and enumerated by flow cytometry. The TSB cultures were then adjusted to 2×10^5 cells per mL in CAMHB.
(§6) To the replicate dilution series of lactic acids, 50 μL of bacterial suspension was added for a final volume of 100 μL per well, each row containing a concentration gradient ranging from 0.004 to 4 g/L. There were 3 organisms per plate (E. coli, P. aeruginosa, S. aureus), set up in duplicate. […] These wells were representative of the suspension density at the time of inoculation.
(§7) For conventional BMD, the incubation time was 24 hours. For flow cytometry, the incubation time was 3 hours. For flow cytometry, following incubation 100 μL of HBSS, containing SYTO® 9 at a concentration of 10 μM was added to each well of the plate for a final dye concentration of 5 μM. The plates were then incubated at ambient temperature in the dark for 10 minutes, loaded onto the Attune™ Autosampler, and the data acquired. The plates were run simultaneously on two different Attune™ cytometers.

The test system of data set [11] is E. coli (ATCC 25922). The data set is described as above. The settings on record: for MIC: Escherichia coli, ATCC25922, read-out: minimum inhibitory concentration (MIC); for concentration at which first significant phenotypic change (decrease in SYTO 9 fluorescence) was observed: flow cytometry, 3 hours. In general terms: A flow cytometer gives signals particle by particle.
Experimental: as §3, §4, §5, §6, §7

The test system of data set [12] is P. aeruginosa clinical isolates from patients with cystic fibrosis. The experiment in a line: Crystal violet staining of biofilm microcolonies from clinical isolates. In kind it is cell-based. The settings on record: for Biofilm breakdown (% from baseline) / Isolates responsive to breakdown (% of isolates): 0.5-1.25 ug/ml, 24 hours.
The test system of data set [13] is P. aeruginosa (ATCC 27853). The experiment in a line: Antimicrobial activity on planktonic bacteria, flow cytometry and broth microdilution. The settings on record: for MIC: Pseudomonas aeruginosa, ATCC27853, read-out: minimum inhibitory concentration (MIC); for concentration at which first significant phenotypic change (decrease in SYTO 9 fluorescence) was observed: flow cytometry, 3 hours.
Experimental: as §3, §4, §5, §6, §7

In data set [14] the test system is Pseudomonas aeruginosa (WACC91) biofilm-protected microcolonies. The experiment in a line: Resazurin staining, bacterial metabolic activity of biofilm-protected cultures. In kind it is cell-based. On the procedure:
Laboratory strains of Pseudomonas aeruginosa (WACC91 and PA-001) were thawed (stored as 50% glycerol stocks at −70° C.+2° C.) and streaked out on blood agar plates. […] In this case cultures were propagated to stationary phase to induce stress responses needed to induce biofilm formation on seeding for treatment.
Biofilm formation was complete approximately 24-48 hours following seeding, this was confirmed by a minimum of 1.8 absorbance units at 600 nm.
Prebiotic solution collected from C1 was applied to B0 cultures that had achieved biofilm formation. A 10 dose dilution series of the prebiotic test solution in PMM was prepared (Table 2) to determine the optimal dose range for biofilm disruption of B0 cultures, with 50 μl total volume added to each B0 culture.
A 12-fold serial dilution of tobramycin (99% pure tobramycin sulfate powder, Research Products International) standards were prepared in PMM (8 ng/ml-16 ug/ml), to act as a reference point for assessing biofilm disruption activity observed by the prebiotic test treatment (Table 2). Tobramycin is an antibiotic commonly used to treat chronic respiratory bacterial infections, particularly Pseudomonas aeruginosa. A total of 50 ul of tobramycin standards were added to B0 cultures that had achieved biofilm formation. […]

Consider nine compounds from US20240397944A1, “METHODS FOR BIOFILM DISRUPTION” (Neolixir Limited, priority 2021, published 2024).

Structures are written as SMILES. ≈ marks a conversion by molar mass, not a printed value.

Regarding `CC(O)C(=O)O` (racemic) [racemic mix (D/L), D/L lactic acid], the “biofilm mass (crystal violet) compared to baseline” value in [1], in data set [2] and in data set [3] was “variable results” each time.
For the compound `O=C(O)C(O)c1ccccc1` (stereo not drawn) [2-hydroxy-2-phenylacetic acid], in data set [4], the “Log P” value is 0.67. Further, the Water solubility in data set [5] was 1140 mM.
On to `CCC(O)C(=O)O` (stereo not drawn) [2-hydroxybutanoic acid], for which the Water solubility in data set [5] was 1930 mM.
Consider `CCCCC(O)C(=O)O` (stereo not drawn) [2-hydroxyhexanoic acid], for which the Water solubility in [5] is 270 mM.
As to `CCCC(O)C(=O)O` (stereo not drawn) [2-hydroxypentanoic acid], the Water solubility in data set [5] is 1640 mM.
Regarding `CC(O)C(=O)O` (stereo not drawn) [2-hydroxypropanoic acid], in data set [6], the “LD50 Dermal” value was >2000 mg/kg (rabbit). Further, in data set [7], the “LC50 Inhalation” value is on record as >7.94 mg/L (rat) 4 h.
As for `C[C@@H](O)C(=O)O` [D-lactic acid, (2R)-2-hydroxypropanoic acid], in data set [8] (pure grade standards run against prebiotic test solution dilutions, methods of Example 1), the “active dose range for biofilm disruption” value lay within 0.25 to 1.25 mg/mL. Besides, the “Altered metabolism with treatment (% of isolates)” value in data set [9] (Mucoid isolates) is on record as 75 % of isolates; in data set [9] (Non-mucoid isolates), 69.2 % of isolates. For the same compound, the “Metabolism change (% from baseline)” value in data set [9] (Mucoid isolates) is listed as 37 % from baseline; in [9] (Non-mucoid isolates), 46.1 % from baseline. Moreover, in data set [9] (all strains tested), the “share of all strains tested showing a change in metabolic activity” value was “More than 65%”. Further, the MIC in data set [10], in data set [11] and in data set [13] was 4000 µg/mL (≈ 44.4 mM) throughout. Also, the “concentration at which first significant phenotypic change (decrease in SYTO 9 fluorescence) was observed” value in data set [10], in data set [11] and in data set [13] was 1 g/L throughout. In addition, the “Biofilm breakdown (% from baseline)” value in data set [12] (Mucoid isolates) is 17.2 % from baseline; in data set [12] (Non-mucoid isolates), 23 % from baseline. For the same compound, the “Isolates responsive to breakdown (% of isolates)” value is listed as 60 % of isolates in data set [12] (Mucoid isolates) and 53.8 % of isolates in data set [12] (Non-mucoid isolates). Also, the “share of all strains showing evidence of biofilm disruption” value in [12] (all strains tested) is on record as “Greater than 50%”.
For `C[C@H](O)C(=O)O` [L-lactic acid, reference compound], the “biofilm mass (crystal violet) compared to baseline” value in [1], in data set [2] and in data set [3] was “not” each time. The MIC in data set [10], in data set [11] and in [13] was 4000 µg/mL (≈ 44.4 mM) each time. In addition, the “concentration at which first significant phenotypic change (decrease in SYTO 9 fluorescence) was observed” value in [10], in [11] and in data set [13] was 1 g/L throughout.
As to `NC[C@H]1O[C@H](O[C@H]2[C@H](O)[C@@H](O[C@H]3O[C@H](CO)[C@@H](O)[C@H](N)[C@H]3O)[C@H](N)C[C@@H]2N)[C@H](N)C[C@@H]1O` [tobramycin], the reduced biofilm density in data set [8] (tobramycin 16 ug/ml, bioactive dose) was 80-90%. Besides, the “concentrations at which reduced metabolic activity was observed” value in data set [14] (WACC91, 24 hrs treatment, supernatants) was 1 to 16 µg/mL. Further, in [14] (bioactive dose 16 ug/ml), the “inhibition of metabolic activity relative to prebiotic test solution (90%)” value is “comparable”.

What is called Log P is a log measure of how a compound divides between an organic and an aqueous phase.
